The subject of data set [1] is PERV pol gene. In words: PERV pol targeting (editing) efficiency in FFF3 cells, deep sequencing of PERV pol loci. Format: cell-based, porcine. The settings on record: for average targeting efficiency (PERV editing efficiency) of FFF3 populations: applied during genetic modification with CRISPR-Cas9. On the procedure: Similar to the procedure previously described by Yang et al, 2015, Science, 80:350, a DNA fragment encoding U6-gRNA1-U6-gRNA2 (Genewiz) was synthesized and incorporated into a previously constructed PiggyBac-cas9 plasmid. To establish the FFF3 cell lines with PiggyBac-Cas9/2gRNAs integration, 5×10^5 FFF3 cells were transfected with 16 μg PiggyBac-Cas9/2gRNAs plasmid and 4 μg Super PiggyBac Transposase plasmid (System Biosciences) using the Neon transfection system according to the instructions in the commercial kits (Thermo Fisher Scientific). To select the cells carrying the integrated construct, 2 μg/mL puromycin was applied to the transfected cells. Based on the negative control, in which puromycin was applied to wild type FFF3 cells, it was determined that the puromycin selection was completed in 4 days. The FFF3-PiggyBac cell line was maintained with 2 μg/mL puromycin hereafter and a 2 μg/ml doxycycline was applied to induce Cas9 expression of the doxycycline-inducible FFF3-PiggyBac cell line.
To avoid the Cas9-consistent expression in the FFF3 cell line, PiggyBac-Cas9/2gRNAs excision from the FFF3 genome was conducted by transfecting 5×10^5 cells with 3 μg PiggyBac Excision-Only Transposase vector using Lipofectamine 2000 reagent. The PiggyBac-Cas9/2gRNAs-excised FFF3 cells were then single-cell sorted into 96-well plates for clone growth and genotyping.
First, puromycin selection followed by PiggyBac excision was conducted on the FFF3, PiggyBac-Cas9/2gRNA cell line. Then the cells were single-cell sorted into both 96-well PCR plates for direct genotyping and 96-well cell culture plates for colony growth.
To genotype single FF cells without clonal expansion, the PERV loci from sorted single cells were directly amplified according to a previously reported single-cell genotyping protocol. Briefly, the single cells were sorted into 96-well PCR plates with each well carrying a 5 μl lysis mixture, which contained 0.51 μl 10×KAPA express extract buffer (KAPA Biosystems), 0.1 μl of 1 U/μl KAPA Express Extract Enzyme and 4.6 μl water. The lysis reaction was incubated at 75° C. for 15 min and the reaction was subsequently inactivated at 95° C. for 5 min. All reactions were then added to 20 μl PCR reactions containing 1×KAPA 2G fast (KAPA Biosystems), 0.2 μM PERV Illumina primers (Methods Table 2). Reactions were incubated at 95° C. for 3 min followed by 25 cycles of 95° C., 20 s; 59° C., 20 s and 72° C., 10 s. To add the Illumina sequence adaptors, 3 μl of reaction products were then added to 20 μl of PCR mix containing 1×KAPA 2G fast(KAPA Biosystems) and 0.3 μM primers carrying Illumina sequence adaptors. Reactions were incubated at 95° C. for 3 min followed by 10 cycles of 95° C., 20 s; 59° C., 20 s and 72° C., 10 s. PCR products were checked on EX 2% gels (Invitrogen), followed by the recovery of 300-400 bp products from the gel. These products were then mixed at roughly the same amount, purified (QIAquick Gel Extraction Kit), and sequenced with MiSeq Personal Sequencer (Illumina). Deep sequencing data was analyzed, and the PERV editing efficiency using CRISPR-GA was determined (Denner et al., 2016, Viruses, 8:215).
As previously described in Yang et al. (6), a custom pipeline was built to estimate the efficiency of PERV inactivation. Briefly, the pol gene was amplified and sequenced via Illumina Next Generation Sequencing using PE250 or PE300. First, the two overlapping reads using PEAR (15) were combined and mapped to the reference region using BLAT. After mapping, the reads were grouped into sets containing specific combinations of haplotypes, and indel types. Read sets with representation lower than 0.5% of the total number of mapped reads were discarded. Finally, the mapping output was parsed to call the different insertions and deletions, as described in Güell et al (16).

Data set [2] concerns FFF3 cells.
[3] abbreviates: clones grown from sorted single cells.

Regarding `Cc1ccc(C(=O)Cn2c3c(sc2=N)CCCC3)cc1` [PFTα, pifithrin alpha, reference compound], the “average targeting efficiency (PERV editing efficiency) of FFF3 populations” value (“average targeting efficiency” below) in data set [1] is “did not increased”.
Turning to “Bcl-2: an apoptosis inhibitor, over-expressed”, the “PERV targeting efficiency among treatments with different dosages” value in data set [1] (FFF3 cells, seven days of treatment) is reported as “No significant difference”. The “average targeting efficiency” value in data set [1] is listed as “did not increase”. The cytotoxicity entry in data set [2] is “Dose-dependent cytotoxicity”.
Take basic fibroblast growth factor [bFGF]: the “average targeting efficiency” value in data set [1] was “did not increased”.

B1: SV40 large T antigen: transiently over-expressed inhibitor of both p53 and Rb pathways (protein, UniProt P03070 1-708, looked up)
Large T antigen: MDKVLNREESLQLMDLLGLERSAWGNIPLMRKAYLKKCKEFHPDKGGDEEKMKKMNTLYKKMEDGVKYAHQPDFGGFWDATEIPTYGTDEWEQWWNAFNEENLFCSEEMPSSDDEATADSQHSTPPKKKRKVEDPKDFPSELLSFLSHAVFSNRTLACFAIYTTKEKAALLYKKIMEKYSVTFISRHNSYNHNILFFLTPHRHRVSAINNYAQKLCTFSFLICKGVNKEYLMYSALTRDPFSVIEESLPGGLKEHDFNPEEAEETKQVSWKLVTEYAMETKCDDVLLLLGMYLEFQYSFEMCLKCIKKEQPSHYKYHEKHYANAAIFADSKNQKTICQQAVDTVLAKKRVDSLQLTREQMLTNRFNDLLDRMDIMFGSTGSADIEEWMAGVAWLHCLLPKMDSVVYDFLKCMVYNIPKKRYWLFKGPIDSGKTTLAAALLELCGGKALNVNLPLDRLNFELGVAIDQFLVVFEDVKGTGGESRDLPSGQGINNLDNLRDYLDGSVKVNLEKKHLNKRTQIFPPGIVTMNEYSVPKTLQARFVKQIDFRPKDYLKHCLERSEFLLEKRIIQSGIALLLMLIWYRPVAEFAQSIQSRIVEWKERLDKEFSLSVYQKMKFNVAMGIGVLDWLRNSDDDDEDSQENADKNEDGGEKNMEDSGHETGIDSQSQGSFQAPQSSQSVHDHNQPYHICRGFTCFKKPPTPPPEPET
Turning to B1, in data set [1], the “average targeting efficiency” value was “increased”. In data set [1] (setting [3]), the “increase of the ratio of >80% PERV-ko clones compared with the untreated group” value is recorded as 3.75 folds and the “increase of the ratio of >90% PERV-ko clones compared with the untreated group” value is reported as 5.06 folds.

The values above are taken from US12058986B2, “Method for generating a genetically modified pig with inactivated porcine endogenous retrovirus (PERV) elements” (eGenesis, Inc., priority 2017, dated 2024).
